Laboratory results as given in paper PMC10788925 (Journal of Medicinal Chemistry, 2023).
pEC50: −log10 of the molar value.

What was measured:
HEV-3 replicon p6-Gluc = assay: microbe, parasite or virus in culture; assay type: cell-based, Hepatitis E virus; conditions: Hepatitis E virus
in vitro = conditions: human

| Structure (SMILES) | pEC50 (HEV-3 replicon p6-Gluc; HepG2, 24 h) | EC90 (HEV-3 replicon p6-Gluc; HepG2, 24 h) [nM] | pEC50 (HEV-3 replicon p6-Gluc; HepG2, 48 h) | EC90 (HEV-3 replicon p6-Gluc; HepG2, 48 h) [nM] | CC50 at 24 h (in vitro) [nM] | CC50 at 48 h (in vitro) [nM] |
| --- | --- | --- | --- | --- | --- | --- |
| CONC(=O)[C@H]1[C@@H](O)[C@@]2(O)c3c(Cl)cc(Cl)cc3O[C@@]2(c2ccc(OC)cc2)[C@@H]1c1ccccc1 (racemic) [14da, (±)-(1R,2R,3S,3aR,8bS)-6,8-Dichloro-1,8b-dihydroxy-N-methoxy-3a-(4-methoxyphenyl)-3-phenyl-2,3,3a,8b-tetrahydro-1H-cyclopenta[b]benzofuran-2-carboxamide] | 8.07 | 172 | 8.01 | 134 | 511 | 31.8 |
| CONC(=O)[C@H]1[C@@H](O)[C@@]2(O)c3c(F)cc(OC)cc3O[C@@]2(c2ccc(OC)cc2)[C@@H]1c1ccccc1 (racemic) [14hb, (±)-(1R,2R,3S,3aR,8bS)-8-Fluoro-1,8b-dihydroxy-N,6-dimethoxy-3a-(4-methoxyphenyl)-3-phenyl-2,3,3a,8b-tetrahydro-1H-cyclopenta[b]benzofuran-2-carboxamide] | 7.76 | 91.2 | 7.96 | 69.8 | 491 | 27.5 |
| CONC(=O)[C@H]1[C@@H](O)[C@@]2(O)c3c(OC)cc(Br)cc3O[C@@]2(c2ccc(OC)cc2)[C@@H]1c1ccccc1 (racemic) [14m, (±)-(1R,2R,3S,3aR,8bS)-6-Bromo-1,8b-dihydroxy-N,8-dimethoxy-3a-(4-methoxyphenyl)-3-phenyl-2,3,3a,8b-tetrahydro-1H-cyclopenta[b]benzofuran-2-carboxamide] | 9.00 | 328 | 9.70 | 1.6 | 748 | 1 |
| COC(=O)[C@H]1[C@@H](O)[C@@]2(O)c3c(OC)cc(OC)cc3O[C@@]2(c2ccc(OC)cc2)[C@@H]1c1ccccc1 (racemic) [(±)-methyl rocaglate (11bc), (±)-Methyl (1R,2R,3S,3aR,8bS)-1,8b-dihydroxy-6,8-dimethoxy-3a-(4-methoxyphenyl)-3-phenyl-2,3,3a,8b-tetrahydro-1H-cyclopenta[b]benzofuran-2-carboxylate, reference compound] | 7.55 | 631 | 7.52 | 188 | 690 | 65.3 |
| COc1ccc([C@@]23Oc4cc(OC)cc(OC)c4[C@]2(O)[C@H](O)[C@H](C(=O)N(C)C)[C@H]3c2ccccc2)cc1 (racemic) [(±)-rocaglamide (rac-1b), (±)-(1R,2R,3S,3aR,8bS)-1,8b-Dihydroxy-6,8-dimethoxy-3a-(4-methoxyphenyl)-N,N-dimethyl-3-phenyl-2,3,3a,8b-tetrahydro-1H-cyclopenta[b]benzofuran-2-carboxamide, reference compound] | 7.56 | 213 | 7.68 | 201 | 550 | 44.5 |
| COC(=O)[C@H]1[C@@H](O)[C@@]2(O)c3c(OC)cc(O[C@@H]4O[C@@H]([C@H](O)CO)CO[C@H]4OC)cc3O[C@@]2(c2ccc(OC)cc2)[C@@H]1c1ccccc1 [(−)-silvestrol (2a), silvestrol, reference compound] | 8.38 | 40.5 | 8.66 | 28.1 | 180 | 13.4 |
